Test results: US9617256B2 (priority 2007, dated 2017)
Converted amounts (≈) assume the structure as drawn.

What was measured:
[1] = tested on: APAE006 (strain of P. aeruginosa in which all efflux pumps are inactivated); experiment: microbe, parasite or virus in culture; type: cell-based; conditions: Pseudomonas aeruginosa, read-out: MIC APAE006, P. aeruginosa, all efflux pumps inactivated
Procedure, shortened: (§1)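 Two-fold drug dilutions in cation-adjusted MHB were inoculated to 3×10^5–7×10^5 CFU/mL and held at 35° C. for 18-24 hours (ambient air), following CLSI. APAE006 is an efflux-deficient P. aeruginosa.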

[2] = tested on: AABA1060 (clinical isolate of Acinetobacter baumannii); experiment: MIC broth microdilution, AABA1060; type: cell-based; conditions: Acinetobacter baumannii, read-out: MIC AABA1060
Procedure, shortened: (§2)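 CLSI-guided microdilution: bacteria passaged overnight at 35° C. on Mueller-Hinton agar, tested in cation-adjusted broth at a final 3×10^5–7×10^5 CFU/mL across 2-fold drug dilutions, read after 18-24 h at 35° C.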

[3] = tested on: AECO063 (ATCC25922 bearing an acrAB mutation); experiment: microbe, parasite or virus in culture; type: cell-based, E. coli; conditions: Escherichia coli, ATCC25922, read-out: MIC AECO063
Procedure, shortened: as §2

[4] = tested on: ASAU001 (laboratory strain of S. aureus, ATCC29213); experiment: MIC broth microdilution, ASAU001; type: cell-based; conditions: Staphylococcus aureus, ATCC29213, read-out: MIC ASAU001
Procedure, shortened: as §2

[5] = tested on: APAE001 (ATCC27853); experiment: MIC broth microdilution, APAE001; type: cell-based, P. aeruginosa; conditions: Pseudomonas aeruginosa, ATCC27853, read-out: MIC APAE001, APAE001 is ATCC27853
Procedure, shortened: as §2

[6] = tested on: AECO001 HSA AGP; experiment: MIC broth microdilution, AECO001 HSA AGP; type: cell-based, E. coli; conditions: Escherichia coli
Procedure, shortened: as §2

[7] = tested on: AECO001 (ATCC25922); experiment: MIC broth microdilution, AECO001; type: cell-based, E. coli; conditions: Escherichia coli, ATCC25922, read-out: MIC AECO001
Procedure, shortened: as §2

[8] = tested on: APAE006 in the presence of 8 micrograms per milliliter of polymyxin B nonapeptide; type: cell-based, P. aeruginosa; conditions: in the presence of 8 micrograms per milliliter of polymyxin B nonapeptide
Procedure, shortened: as §1

Row | Compound | MIC [1] [µg/mL] | MIC [2] [µg/mL] | MIC [3] [µg/mL] | MIC [4] [µg/mL] | MIC [5] [µg/mL] | MIC [6] [µg/mL] | MIC [7] [µg/mL] | MIC APAE006 + PMBN [8]
1 | C[C@@H](N)[C@H](NC(=O)c1ccc(C#CC#Cc2ccc(CO)cc2)cc1)C(=O)NO [Example 82-3] | < 2 | 2 to 16 (≈ 5.11 to 40.9 µM) | < 2 | 16 to 64 (≈ 40.9 to 164 µM) | < 2 | 16 to 64 (≈ 40.9 to 164 µM) | < 2 | A (MIC's of 2.0 μg/mL or less = A)
2 | CC(C)(N)C(NC(=O)c1ccc(C#Cc2ccc(CNC3CC3)cc2)cc1)C(=O)NO (stereo not drawn) [Example 137-6] | < 2 | 2 to 16 (≈ 4.76 to 38 µM) | < 2 | 16 to 64 (≈ 38 to 152 µM) | < 2 | 2 to 16 (≈ 4.76 to 38 µM) | < 2 | A (MIC's of 2.0 μg/mL or less = A)
3 | C[C@@H](O)[C@H](NC(=O)c1ccc(/C=C/C#Cc2ccc(CN3CCOCC3)cc2)cc1)C(=O)NO [Example 30-12a] | < 2 | 2 to 16 (≈ 4.31 to 34.5 µM) | < 2 | > 64 | < 2 | < 2 | < 2 | A (MIC's of 2.0 μg/mL or less = A)
4 | C[C@@H](N)[C@H](NC(=O)c1ccc(C#Cc2ccc(CNCCF)cc2)cc1)C(=O)NO [Example 118-9] | < 2 | 2 to 16 (≈ 4.85 to 38.8 µM) | < 2 | 16 to 64 (≈ 38.8 to 155 µM) | < 2 | 2 to 16 (≈ 4.85 to 38.8 µM) | < 2 | A (MIC's of 2.0 μg/mL or less = A)
5 | C[C@@H](N)[C@H](NC(=O)c1ccc(C#Cc2ccc(CNC3CC3)cc2)cc1)C(=O)NO [Example 115-2] | < 2 | 2 to 16 (≈ 4.92 to 39.4 µM) | < 2 | > 64 | < 2 | 2 to 16 (≈ 4.92 to 39.4 µM) | < 2 | A (MIC's of 2.0 μg/mL or less = A)
6 | CO[C@H](C)[C@H](NC(=O)c1ccc(C#C/C=C/c2ccc(CN3CCOCC3)cc2)cc1)C(=O)NO [Example 97-1, N-((1S,2R)-1-Hydroxycarbamoyl-2-methoxy-propyl)-4-[(E)-4-(4-morpholin-4-ylmethyl-phenyl)-but-3-en-1-ynyl]-benzamide] | < 2 | 2 to 16 (≈ 4.19 to 33.5 µM) | < 2 | 16 to 64 (≈ 33.5 to 134 µM) | 2 to 16 (≈ 4.19 to 33.5 µM) | < 2 | < 2 | A (MIC's of 2.0 μg/mL or less = A)
7 | C[C@@H](O)[C@H](NC(=O)c1ccc(C#C/C=C/c2ccccc2)cc1)C(=O)NO [Example 104-1, N-((1S,2R)-2-Hydroxy-1-hydroxycarbamoyl-propyl)-4-((E)-4-phenyl-but-3-en-1-ynyl)-benzamide] | < 2 | 2 to 16 (≈ 5.49 to 43.9 µM) | < 2 | 16 to 64 (≈ 43.9 to 176 µM) | 2 to 16 (≈ 5.49 to 43.9 µM) | 2 to 16 (≈ 5.49 to 43.9 µM) | < 2 | A (MIC's of 2.0 μg/mL or less = A)
8 | CNC(=O)[C@@H](NC(=O)c1ccc(C#Cc2ccc(CN3CCOCC3)cc2)cc1)[C@@H](C)N [Example 117-1, N-((1S,2R)-2-Amino-1-methylcarbamoyl-propyl)-4-(4-morpholin-4-ylmethyl-phenylethynyl)-benzamide] | > 64 | > 64 | > 64 | > 64 | > 64 | > 64 | > 64 | D (MIC's of greater than 64.0 μg/mL = D)
9 | CC(=O)NC[C@H](NC(=O)c1ccc(C#C/C=C/c2ccc(CN3CCOCC3)cc2)cc1)C(=O)NO [Example 98-3, N—((S)-2-acetylamino-1-hydroxycarbamoyl-ethyl)-4-[(E)-4-(4-morpholin-4-ylmethyl-phenyl)-but-3-en-1-ynyl]-benzamide] | < 2 | 16 to 64 (≈ 32.6 to 130 µM) | < 2 | > 64 | 2 to 16 (≈ 4.08 to 32.6 µM) | < 2 | < 2 | A (MIC's of 2.0 μg/mL or less = A)
